The record followed here is patent publication US12721810B2, “Aqueous ophthalmic solutions of phentolamine and medical uses thereof” (Opus Genetics, Inc., priority 2013, dated 2026).

This data set is described as follows: Stability on storage: HPLC assay for API, impurities and degradants (Examples 1-4). The class given is physicochemical. As to conditions: period of 4 weeks, 2-8° C. to 60° C. The protocol: (§1) The injection volume was 10 μL.
as §1

Counter-ions that a name gives are not always drawn.

With `Cc1ccc(N(CC2=NCCN2)c2cccc(O)c2)cc1` [phentolamine mesylate], the stability in water entry is given as “degrades rapidly”.
